From patent US7250413B2, “C-25 carbamate rifamycin derivatives with activity against drug-resistant microbes” (Cumbre Pharmaceuticals Inc., priority 2004, dated 2007)
Values after ≈ are worked out from the molar mass of the structure shown.

Legend:
Test in all cases: MIC, microbroth dilution
Assay type in all cases: cell-based
[1] = tested on: Staphylococcus aureus ATCC29213; conditions: rifS, Cation-Adjusted Mueller-Hinton Broth, 37° C., read-out: MIC
Procedure: (§1) Representative compounds were assayed for antimicrobial activity as follows: Minimum Inhibitory Concentrations (“MICs”) were determined by the microbroth dilution method as per NCCLS guidelines (National Committee for Clinical Laboratory Standards, 2000), except that all growth incubations were conducted at 37° C. Bacterial cultures were tested in the following bacteriological media: S. aureus, S. epidermidis, and E. coli in Cation-Adjusted Mueller-Hinton Broth, S. pneumoniae in THY Broth supplemented with 1 mg/mL catalase under 5% CO2 atmosphere, S. pyogenes in THY Broth, E. faecalis in BHI Broth, H. influenzae in BHI Broth supplemented with 0.75 μL of 1 mg/mL NAD and 150 μL of 1 mg/ml hematin per 5 mL, and M smegmatis in Middlebrook Broth plus ADC Enrichment.

[2] = tested on: Enterococcus faecalis ATCC29212; conditions: rifS, BHI Broth, 37° C., read-out: MIC
Procedure: as §1

[3] = tested on: Mycobacterium smegmatis ATCC700084; conditions: Mycolicibacterium smegmatis, ATCC700084; rifS; Middlebrook Broth plus ADC Enrichment, 37° C.; read-out: MIC
Procedure: as §1

Row | Compound | MIC [1] [µg/mL] | MIC [2] [µg/mL] | MIC [3] [µg/mL]
1 | CO[C@H]1/C=C/O[C@@]2(C)Oc3c(C)c(O)c4c(c3C2=O)C(=O)C(N2CCOCC2)=C(NC(=O)/C(C)=C\C=C\[C@H](C)[C@H](O)[C@@H](C)[C@@H](O)[C@@H](C)[C@H](OC(=O)NCC#Cc2cccc(CO)c2)[C@@H]1C)C4=O [Example 44, 25-O-Desacetyl-(carbonyl-[3-(3-amino-prop-1-ynyl)-phenyl]-methanol) 3-morpholino rifamycin S] | 0.002 to 1.95 (≈ 0.00216 to 2.11 µM) | 0.25 to 62 (≈ 0.27 to 67 µM) | 0.063 to 31
2 | CO[C@H]1/C=C/O[C@@]2(C)Oc3c(C)c(O)c4c(c3C2=O)C(=O)C(N2CCOCC2)=C(NC(=O)/C(C)=C\C=C\[C@H](C)[C@H](O)[C@@H](C)[C@@H](O)[C@@H](C)[C@H](OC(=O)NCC#Cc2cnc3ccccc3c2)[C@@H]1C)C4=O [Example 45, 25-O-Desacetyl-(carbonyl-3-quinolin-3-yl-prop-2-ynylamine) 3-morpholino rifamycin S] | 0.002 to 1.95 (≈ 0.00211 to 2.06 µM) | 0.25 to 62 (≈ 0.264 to 65.5 µM) | 0.063 to 31
3 | COc1ccccc1-c1cc(CNC(=O)O[C@H]2[C@H](C)[C@H](O)[C@H](C)[C@@H](O)[C@@H](C)/C=C/C=C(/C)C(=O)NC3=C(N4CCOCC4)C(=O)c4c(c(O)c(C)c5c4C(=O)[C@@](C)(O/C=C/[C@H](OC)[C@H]2C)O5)C3=O)on1 [Example 46, 25-O-Desacetyl-(carbonyl-C-[3-(2-methoxy-phenyl)-isoxazol-5-yl]-methylamino) 3-morpholino rifamycin S] | 0.002 to 1.95 (≈ 0.00206 to 2.01 µM) | 0.25 to 62 (≈ 0.258 to 64 µM) | 0.063 to 31
4 | CO[C@H]1/C=C/O[C@@]2(C)Oc3c(C)c(O)c4c(c3C2=O)C(=O)C(N2CCOCC2)=C(NC(=O)/C(C)=C\C=C\[C@H](C)[C@H](O)[C@@H](C)[C@@H](O)[C@@H](C)[C@H](OC(=O)NCc2cc(-c3ccccn3)no2)[C@@H]1C)C4=O [Example 47, 25-O-Desacetyl-(carbonyl-C-(3-Pyridin-2-yl-isoxazol-5-yl)-methylamino) 3-morpholino rifamycin S] | 0.002 to 1.95 (≈ 0.00213 to 2.07 µM) | 0.25 to 62 (≈ 0.266 to 66 µM) | 0.063 to 31
5 | CO[C@H]1/C=C/O[C@@]2(C)Oc3c(C)c(O)c4c(c3C2=O)C(=O)C(N2CCOCC2)=C(NC(=O)/C(C)=C\C=C\[C@H](C)[C@H](O)[C@@H](C)[C@@H](O)[C@@H](C)[C@H](OC(=O)NCc2cc(C(C)=O)no2)[C@@H]1C)C4=O [Example 48] | 0.002 to 1.95 (≈ 0.00221 to 2.15 µM) | 0.25 to 62 (≈ 0.276 to 68.5 µM) | 0.063 to 31
6 | CO[C@H]1/C=C/O[C@@]2(C)Oc3c(C)c(O)c4c(c3C2=O)C(=O)C(N2CCOCC2)=C(NC(=O)/C(C)=C\C=C\[C@H](C)[C@H](O)[C@@H](C)[C@@H](O)[C@@H](C)[C@H](OC(=O)N2CCN(CCNc3ccc(C(=NO)Nc5ccccc5)cc3C(F)(F)F)CC2)[C@@H]1C)C4=O [Example 49, 25-O-Desacetyl-(carbonyl-N-hydroxy-N′-phenyl-4-(2-piperazin-1-yl-ethylamino)-3-trifluoromethyl-benzamidine) 3-morpholino rifamycin S] | 0.002 to 1.95 (≈ 0.00171 to 1.66 µM) | 0.25 to 62 (≈ 0.213 to 52.9 µM) | 0.063 to 31
7 | Cc1cc2cc(NC(=O)c3ccc(N4CCNCC4)c(C(F)(F)F)c3)ccc2[nH]1 [Example 50, N-(2-Methyl-1H-indol-5-yl)-4-piperazin-1-yl-3-trifluoromethyl-benzamide] | 0.002 to 1.95 (≈ 0.00497 to 4.85 µM) | 0.25 to 62 (≈ 0.621 to 154 µM) | 0.063 to 31
8 | CO[C@H]1/C=C/O[C@@]2(C)Oc3c(C)c(O)c4c(c3C2=O)C(=O)C(N2CCOCC2)=C(NC(=O)/C(C)=C\C=C\[C@H](C)[C@H](O)[C@@H](C)[C@@H](O)[C@@H](C)[C@H](OC(=O)N2CCN(c3ccc(C(=O)Nc5ccc6[nH]c(C)cc6c5)cc3C(F)(F)F)CC2)[C@@H]1C)C4=O [Example 51, 25-O-Desacetyl-(carbonyl-N-(2-methyl-1H-indol-5-yl)-4-piperazin-1-yl-3-trifluoromethyl-benzamide) 3-morpholino rifamycin S] | 0.002 to 1.95 (≈ 0.00171 to 1.67 µM) | 0.25 to 62 (≈ 0.214 to 53.1 µM) | 0.063 to 31
9 | COc1cncc(NC(=O)c2ccc(N3CCN(C(=O)O[C@H]4[C@H](C)[C@H](O)[C@H](C)[C@@H](O)[C@@H](C)/C=C/C=C(/C)C(=O)NC5=C(N6CCOCC6)C(=O)c6c(c(O)c(C)c7c6C(=O)[C@@](C)(O/C=C/[C@H](OC)[C@H]4C)O7)C5=O)CC3)c(C(F)(F)F)c2)c1 [Example 53, 25-O-Desacetyl-(carbonyl-N-(5-methoxy-pyridin-3-yl)-4-piperazin-1-yl-3-trifluoromethyl-benzamide) 3-morpholino rifamycin S] | 0.002 to 1.95 (≈ 0.00175 to 1.7 µM) | 0.25 to 62 (≈ 0.218 to 54.1 µM) | 0.063 to 31
10 | COc1c(N2CCC(NC3CCN(C(=O)O[C@H]4[C@H](C)[C@H](O)[C@H](C)[C@@H](O)[C@@H](C)/C=C/C=C(/C)C(=O)NC5=C(N6CCOCC6)C(=O)c6c(c(O)c(C)c7c6C(=O)[C@@](C)(O/C=C/[C@H](OC)[C@H]4C)O7)C5=O)CC3)C2)c(F)cc2c(=O)c(C(=O)O)cn(C3CC3)c12 (stereo partly drawn) [Example 56] | 0.002 to 1.95 (≈ 0.00165 to 1.61 µM) | 0.25 to 62 (≈ 0.207 to 51.3 µM) | 0.063 to 31
11 | CO[C@H]1/C=C/O[C@@]2(C)Oc3c(C)c(O)c4c(c3C2=O)C(=O)C(N2CCOCC2)=C(NC(=O)/C(C)=C\C=C\[C@H](C)[C@H](O)[C@@H](C)[C@@H](O)[C@@H](C)[C@H](OC(=O)N2CCC(N3CCN(c5cc6c(cc5F)c(=O)c(C(=O)O)cn6C5CC5)CC3)CC2)[C@@H]1C)C4=O [Example 57] | 0.002 to 1.95 (≈ 0.0017 to 1.65 µM) | 0.25 to 62 (≈ 0.212 to 52.6 µM) | 0.063 to 31
12 | COc1c(N2CCC(NC3CCN(C(=O)O[C@H]4[C@H](C)[C@H](O)[C@H](C)[C@@H](O)[C@@H](C)/C=C/C=C(/C)C(=O)NC5=C(N6CCOCC6)C(=O)c6c(c(O)c(C)c7c6C(=O)[C@@](C)(O/C=C/[C@H](OC)[C@H]4C)O7)C5=O)CC3)CC2)c(F)cc2c(=O)c(C(=O)O)cn(C3CC3)c12 [Example 58] | 0.002 to 1.95 (≈ 0.00163 to 1.59 µM) | 0.25 to 62 (≈ 0.204 to 50.7 µM) | 0.063 to 31
13 | COc1c(N2CCCC(NC3CCN(C(=O)O[C@H]4[C@H](C)[C@H](O)[C@H](C)[C@@H](O)[C@@H](C)/C=C/C=C(/C)C(=O)NC5=C(N6CCOCC6)C(=O)c6c(c(O)c(C)c7c6C(=O)[C@@](C)(O/C=C/[C@H](OC)[C@H]4C)O7)C5=O)CC3)C2)c(F)cc2c(=O)c(C(=O)O)cn(C3CC3)c12 (stereo partly drawn) [Example 59] | 0.002 to 1.95 (≈ 0.00163 to 1.59 µM) | 0.25 to 62 (≈ 0.204 to 50.7 µM) | 0.063 to 31
14 | COc1c(N2CCN(C3CCN(C(=O)O[C@H]4[C@H](C)[C@H](O)[C@H](C)[C@@H](O)[C@@H](C)/C=C/C=C(/C)C(=O)NC5=C(N6CCOCC6)C(=O)c6c(c(O)c(C)c7c6C(=O)[C@@](C)(O/C=C/[C@H](OC)[C@H]4C)O7)C5=O)CC3)CC2)c(F)cc2c(=O)c(C(=O)O)cn(C3CC3)c12 [Example 60] | 0.002 to 1.95 (≈ 0.00165 to 1.61 µM) | 0.25 to 62 (≈ 0.207 to 51.3 µM) | 0.063 to 31
15 | COc1c(N2CCN(C3CCN(C(=O)O[C@H]4[C@H](C)[C@H](O)[C@H](C)[C@@H](O)[C@@H](C)/C=C/C=C(/C)C(=O)NC5=C(N6CCOCC6)C(=O)c6c(c(O)c(C)c7c6C(=O)[C@@](C)(O/C=C/[C@H](OC)[C@H]4C)O7)C5=O)C3)CC2)c(F)cc2c(=O)c(C(=O)O)cn(C3CC3)c12 (stereo partly drawn) [Example 62] | 0.002 to 1.95 (≈ 0.00167 to 1.63 µM) | 0.25 to 62 (≈ 0.209 to 51.9 µM) | 0.063 to 31
16 | CO[C@H]1/C=C/O[C@@]2(C)Oc3c(C)c(O)c4c(c3C2=O)C(=O)C(N2CCOCC2)=C(NC(=O)/C(C)=C\C=C\[C@H](C)[C@H](O)[C@@H](C)[C@@H](O)[C@@H](C)[C@H](OC(=O)NCC(=O)NC2CCN(c3c(F)cc5c(=O)c(C(=O)O)cn(C6CC6)c5c3Cl)C2)[C@@H]1C)C4=O (stereo partly drawn) [Example 63] | 0.002 to 1.95 (≈ 0.00168 to 1.64 µM) | 0.25 to 62 (≈ 0.21 to 52.2 µM) | 0.063 to 31
17 | COc1c(N2CCN(C(=O)CNC(=O)O[C@H]3[C@H](C)[C@H](O)[C@H](C)[C@@H](O)[C@@H](C)/C=C/C=C(/C)C(=O)NC4=C(N5CCOCC5)C(=O)c5c(c(O)c(C)c6c5C(=O)[C@@](C)(O/C=C/[C@H](OC)[C@H]3C)O6)C4=O)CC2)c(F)cc2c(=O)c(C(=O)O)cn(C3CC3)c12 [Example 64] | 0.002 to 1.95 (≈ 0.00169 to 1.65 µM) | 0.25 to 62 (≈ 0.211 to 52.4 µM) | 0.063 to 31
18 | COc1c(N2CCN(C(=O)C3CN(C(=O)O[C@H]4[C@H](C)[C@H](O)[C@H](C)[C@@H](O)[C@@H](C)/C=C/C=C(/C)C(=O)NC5=C(N6CCOCC6)C(=O)c6c(c(O)c(C)c7c6C(=O)[C@@](C)(O/C=C/[C@H](OC)[C@H]4C)O7)C5=O)C3)C(C)C2)c(F)cc2c(=O)c(C(=O)O)cn(C3CC3)c12 (stereo partly drawn) [Example 65] | 0.002 to 1.95 (≈ 0.00163 to 1.59 µM) | 0.25 to 62 (≈ 0.204 to 50.7 µM) | 0.063 to 31
19 | COc1c(N2CCN(C(=O)C3CN(C(=O)O[C@H]4[C@H](C)[C@H](O)[C@H](C)[C@@H](O)[C@@H](C)/C=C/C=C(/C)C(=O)NC5=C(N6CCOCC6)C(=O)c6c(c(O)c(C)c7c6C(=O)[C@@](C)(O/C=C/[C@H](OC)[C@H]4C)O7)C5=O)C3)CC2)c(F)cc2c(=O)c(C(=O)O)cn(C3CC3)c12 [Example 66] | 0.002 to 1.95 (≈ 0.00165 to 1.61 µM) | 0.25 to 62 (≈ 0.207 to 51.3 µM) | 0.063 to 31
20 | CO[C@H]1/C=C/O[C@@]2(C)Oc3c(C)c(O)c4c(c3C2=O)C(=O)C(N2CCOCC2)=C(NC(=O)/C(C)=C\C=C\[C@H](C)[C@H](O)[C@@H](C)[C@@H](O)[C@@H](C)[C@H](OC(=O)NC2CCN(c3c(F)cc5c(=O)c(C(=O)O)cn(C6CC6)c5c3Cl)C2)[C@@H]1C)C4=O (stereo partly drawn) [Example 67, 25-O-Desacetyl-(carbonyl-N-7-(3-amino-pyrrolidin-1-yl)-8-chloro-1-cyclopropyl-6-fluoro-4-oxo-1,4-dihydro-quinoline-3-carboxylic acid) 3-morpholino rifamycin S] | 0.002 to 1.95 (≈ 0.00177 to 1.72 µM) | 0.25 to 62 (≈ 0.221 to 54.8 µM) | 0.063 to 31
21 | CO[C@H]1/C=C/O[C@@]2(C)Oc3c(C)c(O)c4c(c3/C2=N/O)C(=O)C(N2CCOCC2)=C(NC(=O)/C(C)=C\C=C\[C@H](C)[C@H](O)[C@@H](C)[C@@H](O)[C@@H](C)[C@H](OC(=O)NC2CCN(c3c(F)cc5c(=O)c(C(=O)O)cn(C6CC6)c5c3Cl)C2)[C@@H]1C)C4=O (stereo partly drawn) [Example 68] | 0.002 to 1.95 (≈ 0.00175 to 1.7 µM) | 0.25 to 62 (≈ 0.218 to 54.1 µM) | 0.063 to 31
